In EP0589484A1, “1,2-Ethanediol derivative and salt thereof, process for producing the same, and cerebral function-improving agent comprising the same” (TOYAMA CHEMICAL CO., LTD., priority 1989, dated 1990):
Structures can show the parent of a compound that is named as a salt. Where two headings read alike, the source gives them in different places.

Assays:
acetylcholinesterase = biological target: T1, acetylcholinesterase (Mus musculus, UniProt P21836); test: Inhibitory activity for acetylcholinesterase (method of Ellman et al.); type: biochemical
T1 construct: a mouse cerebral homogenate (as an acetylcholinesterase source); from tissue; host or cells: mouse cerebrum (homogenate)
Experimental: A test was conducted in accordance with the method of Ellman et al. [Biochem. Pharmacol., vol. 7, pp. 88-95, 1961].
That is, acetylthiocholine (as a substrate) was added to a phosphate buffer solution containing 5,5'-dithiobis-(2-nitrobenzoic acid) (DTNB), a test compound and a mouse cerebral homogenate (as an acetylcholinesterase source). The resulting mixture was incubated, and the amount of the resulting 5-thio-2-nitrobenzoic acid was photometrically measured at 412 nm.
The inhibitory activity for acetylcholinesterase of the test compound was expressed by the inhibition (%) when the final concentration of the test compound was 10 µg/ml.

ddY female mouse = test: Effect of test compound on hypoxia (antihypoxic activity); type: in vivo; conditions: po, read-out: Antihypoxic activity (%)
Experimental: A test compound dissolved in physiological saline (100 mg/kg) was orally administered to a ddY female mouse (5-6 weeks old, each group consisting of 10 mice). After 1 (or 30 minutes*) hour from the administration, each mouse was placed in a 300-ml glass chamber, and a gas mixture consisting of 4% of oxygen and 96% of nitrogen was passed through the chamber at a rate of 5 liters/min. A time from the start of gas passing to the death of each mouse was measured.
To a control mice group was orally administered only physiological saline.
The antihypoxic activity of the test compound was calculated from the following formula: [formula]

ddY male mice = test: Acute toxicity; type: in vivo, mouse; conditions: 50 mg/kg intravenously, group of 3 ddY male mice
Source text: A test compound dissolved in physiological saline was intravenously administered to a group of 3 ddY male mice (5-6 weeks old) to examine the acute toxicity of the test compound.

[1] = final concentration of the test compound 10 µg/ml, mouse cerebral homogenate, read-out: Inhibition (%)
[2] = 100 mg/kg orally, placed in chamber (4% oxygen, 96% nitrogen) after 1 hour from the administration, survival time relative to control
[3] = 0.5 h, 100 mg/kg orally, placed in chamber (4% oxygen, 96% nitrogen) after 30 minutes from the administration (values marked *), survival time relative to control

T1 sequence (P21836 32-614): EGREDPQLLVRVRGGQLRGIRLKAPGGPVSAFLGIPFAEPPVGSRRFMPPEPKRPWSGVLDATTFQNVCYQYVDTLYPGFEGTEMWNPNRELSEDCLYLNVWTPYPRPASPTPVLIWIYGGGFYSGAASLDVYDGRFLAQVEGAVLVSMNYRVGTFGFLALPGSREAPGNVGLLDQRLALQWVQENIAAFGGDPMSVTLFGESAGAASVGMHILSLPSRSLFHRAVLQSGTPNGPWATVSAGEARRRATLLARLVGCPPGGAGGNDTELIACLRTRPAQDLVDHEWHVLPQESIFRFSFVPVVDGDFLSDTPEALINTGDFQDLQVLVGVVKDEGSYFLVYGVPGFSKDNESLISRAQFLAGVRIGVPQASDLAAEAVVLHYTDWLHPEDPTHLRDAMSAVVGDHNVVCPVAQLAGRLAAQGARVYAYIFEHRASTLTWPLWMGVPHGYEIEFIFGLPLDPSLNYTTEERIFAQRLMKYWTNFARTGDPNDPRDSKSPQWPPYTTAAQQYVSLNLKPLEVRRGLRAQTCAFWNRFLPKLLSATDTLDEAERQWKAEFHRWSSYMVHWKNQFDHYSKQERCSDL

| Compound | inhibition at 10 µg/mL (acetylcholinesterase; [1]) [%] | also measured |
| --- | --- | --- |
| CN(C)CCOCC(O)c1ccc(OCc2ccccc2)cc1 (stereo not shown) [Compound No. 48, 1-(4-benzyloxyphenyl)-2-[2-(N,N-dimethylamino)ethoxy]ethanol hydrochloride] | 51 | response vs control in vivo at 100 mg/kg (ddY female mouse; 1 h): 160% |
| OC(COCCN1CCCC1)c1ccccc1 (stereo not shown) [compound 6] | 13 | Acute toxicity (ddY male mice): no death case |
| CC(OCCN(C)C)C(O)c1ccccc1 (stereo not shown) [compound 30] | 22 | Acute toxicity (ddY male mice): no death case |
| OC(COCCN1CCCCC1)c1ccc(Cl)c(Cl)c1 (stereo not shown) [compound 37] | 45 | response vs control in vivo at 100 mg/kg (ddY female mouse; [2]): 148% |
| CN(C)CCOCC(O)c1ccc(F)cc1 (stereo not shown) [compound 38] | 36 | Acute toxicity (ddY male mice): no death case |
| CN(C)CCOCC(O)c1cccc([N+](=O)[O-])c1 (stereo not shown) [compound 40] | 26 | Acute toxicity (ddY male mice): no death case |
| CN(C)CCOCC(O)c1cccc(OCc2ccccc2)c1 (stereo not shown) [compound 47] | 38 | response vs control in vivo at 100 mg/kg (ddY female mouse; [3]): 165% |
| COc1ccc(-c2ccc(C(O)COCCN(C)C)cc2)cc1 (stereo not shown) [compound 55] | 22 | response vs control in vivo at 100 mg/kg (ddY female mouse; [2]): 207% |
| CN(C)CCOCC(O)c1cccc(Cc2ccccc2)c1 (stereo not shown) [compound 58] | 45 | response vs control in vivo at 100 mg/kg (ddY female mouse; [2]): 133% |
| OC(COCCC1CCN(Cc2ccccc2)CC1)c1ccccc1 (stereo not shown) [compound 60] | 71 |  |
| Cc1cccc(C(O)COCCC2CCN(Cc3ccccc3)CC2)c1 (stereo not shown) [compound 61] | 89 | response vs control in vivo at 100 mg/kg (ddY female mouse; [3]): 184% |
| OC(COCCC1CCN(Cc2ccccc2)CC1)c1ccc(F)cc1 (stereo not shown) [compound 62] | 78 | response vs control in vivo at 100 mg/kg (ddY female mouse; [2]): 127% |
| Cc1ccccc1-c1ccc(C(O)COCCN(C)C)cc1 (stereo not shown) [compound 65] | 62 | Acute toxicity (ddY male mice): no death case |
| CN(C)CCOCC(O)c1ccc(Oc2ccccc2Cl)cc1 (stereo not shown) [compound 70] | 91 | Acute toxicity (ddY male mice): no death case |
| Cc1cc(C)cc(Oc2ccc(C(O)COCCN(C)C)cc2)c1 (stereo not shown) [compound 72] | 92 |  |
| CN(C)CCOCC(O)c1ccc(Oc2ccccc2)c(F)c1 (stereo not shown) [compound 73] | 89 |  |
| OC(COCCC1CCN(Cc2ccccc2)CC1)c1ccc(Oc2ccccc2)cc1 (stereo not shown) [compound 78] | 90 |  |
| Cc1ccc(Oc2ccc(C(O)COCCN(C)C)cc2)cc1 (stereo not shown) [compound 83] | 93 | response vs control in vivo at 100 mg/kg (ddY female mouse; [3]): 177% |
| CN(C)CCOCC(O)c1ccc(OCc2ccncc2)cc1 (stereo not shown) [compound 86] | 50 | response vs control in vivo at 100 mg/kg (ddY female mouse; [3]): 130% |
| CN(C)CCOCC(O)c1ccc(CCc2ccccc2)cc1 (stereo not shown) [compound 89] | 44 | response vs control in vivo at 100 mg/kg (ddY female mouse; [3]): 156% |
| CCN(CC)CCOCC(O)c1cccc(C)c1 (stereo not shown) [compound 90] | 52 |  |
| CN(C)CCOCC(O)c1ccc(OCc2cccc(Cl)c2)cc1 (stereo not shown) [compound 97] | 38 | response vs control in vivo at 100 mg/kg (ddY female mouse; [3]): 138% |
| CN(C)CCOC[C@H](O)c1ccc(OCc2ccccc2)cc1 [compound 103] | 36 |  |
| OC(COC1CCN(Cc2ccccc2)CC1)c1ccccc1 (stereo not shown) [compound 113, 2-(1-benzylpiperidin-4-yloxy)-1-phenylethanol hydrochloride] | 45 |  |
| OC(COCCN1CCc2ccccc2C1)c1ccccc1 (stereo not shown) [compound 165] | 24 |  |

| Compound | inhibition at 10 µg/mL (acetylcholinesterase; [1]) [%] | also measured |
| --- | --- | --- |
| CN(C)CCOCC(O)c1cccc(NS(=O)(=O)c2ccccc2)c1 (stereo not shown) [compound 182] | 38 | Acute toxicity (ddY male mice): no death case |
| CC(=O)OC(COCCN(C)C)c1cccc(OC(=O)Nc2cccc(Cl)c2)c1.Cl (stereo not shown) [compound 190, 1-acetoxy-1-[3-(3-chlorophenylcarbamoyloxy)phenyl]-2-[2-(N,N-dimethylamino)ethoxy]ethane hydrochloride] |  | inhibition at 10 µg/mL (acetylcholinesterase): 76%; Acute toxicity (ddY male mice): no death case |
| CN(C)CCOCC(O)c1ccc(SCc2ccccc2)cc1 (stereo not shown) [compound 222, 1-(4-benzylthiophenyl)-2-[2-(N,N-dimethylamino)ethoxy]ethanol hydrochloride] | 83 | response vs control in vivo at 100 mg/kg (ddY female mouse; 0.5 h): 152% |
| CN(C)CCOCC(O)c1ccc(S(=O)(=O)Cc2ccccc2)cc1 (stereo not shown) [compound 223] | 74 | response vs control in vivo at 100 mg/kg (ddY female mouse; [3]): 149% |
| CN(C)CCOCC(O)c1ccc(-c2cccs2)cc1 (stereo not shown) [compound 224] | 36 | response vs control in vivo at 100 mg/kg (ddY female mouse; [2]): 155% |
| CN(C)CCOCC(O)c1cccc2ccccc12 (stereo not shown) [compound 228, 2-[2-(N,N-dimethylamino)ethoxy]-1-(1-naphthyl)ethanol hydrochloride] | 30 | response vs control in vivo at 100 mg/kg (ddY female mouse; 1 h): 144% |
| CN(C)CCOCC(O)c1ccc(Cl)c2ccccc12 (stereo not shown) [compound 230] | 25 | response vs control in vivo at 100 mg/kg (ddY female mouse; [2]): 177% |
| CN(C)CCCOCC(O)c1cccc2ccccc12 (stereo not shown) [compound 233] | 59 |  |
| OC(COCCN1CCCCC1)c1cccc2ccccc12 (stereo not shown) [compound 237] | 44 | response vs control in vivo at 100 mg/kg (ddY female mouse; [2]): 149% |
| COc1ccc(C(O)COCCN(C)C)c2ccccc12 (stereo not shown) [compound 239] | 22 | response vs control in vivo at 100 mg/kg (ddY female mouse; [2]): 150% |
| CN(CCOCC(O)c1cccc2ccccc12)Cc1ccccc1 (stereo not shown) [compound 241] | 31 |  |
| CN(C)CCOCC(O)c1cccc2ccc(Cl)cc12 (stereo not shown) [compound 246] | 30 | response vs control in vivo at 100 mg/kg (ddY female mouse; [2]): 128% |
| CN(C)CCOCC(O)c1cccc2cccc(Cl)c12 (stereo not shown) [compound 247] | 26 | response vs control in vivo at 100 mg/kg (ddY female mouse; [2]): 124% |
| O=C(c1ccc(F)cc1)C1CCN(CCOCC(O)c2cccc3ccccc23)CC1 (stereo not shown) [compound 260, 2-{2-[4-(p-fluorobenzoyl)piperidin-1-yl]ethoxy}-1-(1-naphthyl)ethanol hydrochloride] | 43 | response vs control in vivo at 100 mg/kg (ddY female mouse; 1 h): 124% |
| OC(COCCN1CCN(Cc2ccccc2)CC1)c1cccc2ccccc12 (stereo not shown) [compound 302] | 38 | response vs control in vivo at 100 mg/kg (ddY female mouse; [3]): 182% |
| CN(C)CCOCC(O)c1ccc2ncccc2c1 (stereo not shown) [compound 319] | 30 | Acute toxicity (ddY male mice): no death case |
| CN(C)CCOCC(O)c1ccc2c(c1)CC(=O)N2 (stereo not shown) [compound 322] | 20 |  |
| CN(C)CCOCC(O)c1ccc2c(c1)CCN2 (stereo not shown) [compound 329] | 45 |  |
| CN(C)CCCOCC(O)c1ccc2sccc2c1 (stereo not shown) [compound 336] | 21 | response vs control in vivo at 100 mg/kg (ddY female mouse; [3]): 224% |
| O=C1CCc2cc(C(O)COCc3cccnc3)ccc2N1 (stereo not shown) [compound 341] | 61 |  |
| OC(COCCC1CCN(Cc2ccccc2)CC1)c1ccc2sccc2c1 (stereo not shown) [compound 342] | 67 | response vs control in vivo at 100 mg/kg (ddY female mouse; [3]): 157% |
| O=C(c1ccc(F)cc1)C1CCN(CCOCC(O)c2ccc3sccc3c2)CC1 (stereo not shown) [compound 350] | 42 | response vs control in vivo at 100 mg/kg (ddY female mouse; [3]): 147% |
| OC(COCCN1CCN(c2ncccn2)CC1)c1ccc2sccc2c1 (stereo not shown) [compound 352] | 26 |  |
| CN(C)CCOCC(O)c1nccn1Cc1ccccc1 (stereo not shown) [compound 372] | 30 |  |
| CN(C)CCOCC(O)c1ccc([N+](=O)[O-])s1 (stereo not shown) [compound 405, 1-(5-nitro-2-thienyl)-2-[2-(N,N-dimethylamino)ethoxy]ethanol] | 59 | response vs control in vivo at 100 mg/kg (ddY female mouse; [3]): 137% |
